Assay results reported in PubChem BioAssay AID1259407 (Chemical Carcinogenesis Research Information System (CCRIS), 2018).
Active and inactive are the calls of the source. No rule for the calls is given here.

System: CCRIS mutagenicity, Ames/micronucleus/aberration tests
Test: CCRIS mutagenicity studies
[1] = Test System: AMES SALMONELLA TYPHIMURIUM, Strain/Indicator: TA97, Metabolic Activation: NONE, Method: STANDARD PLATE
[2] = Test System: AMES SALMONELLA TYPHIMURIUM, Strain/Indicator: TA97, Metabolic Activation: RAT, LIVER, S-9, AROCLOR 1254, Method: STANDARD PLATE
[3] = Test System: AMES SALMONELLA TYPHIMURIUM, Strain/Indicator: TA98, Metabolic Activation: NONE, Method: STANDARD PLATE
[4] = Test System: AMES SALMONELLA TYPHIMURIUM, Strain/Indicator: TA98, Metabolic Activation: RAT, LIVER, S-9, AROCLOR 1254, Method: STANDARD PLATE
[5] = Test System: AMES SALMONELLA TYPHIMURIUM, Strain/Indicator: TA100, Metabolic Activation: NONE, Method: STANDARD PLATE
[6] = Test System: AMES SALMONELLA TYPHIMURIUM, Strain/Indicator: TA1537, Metabolic Activation: RAT, LIVER, S-9, AROCLOR 1254, Method: STANDARD PLATE
[7] = Test System: AMES SALMONELLA TYPHIMURIUM, Strain/Indicator: TA100, Metabolic Activation: RAT, LIVER, S-9, AROCLOR 1254, Method: STANDARD PLATE

For `c1cc2ccc3cccc4ccc(c1)c2c34`, the mutagenic call (End Point: IN VITRO MICRONUCLEUS, Test System: CHO CELLS, Metabolic Activation: RAT, LIVER, S-9, AROCLOR 1254) was “inactive; negative”, the mutagenic call (End Point: IN VITRO MICRONUCLEUS, Test System: V79 CELLS, Metabolic Activation: NONE) was “inactive; negative” and the mutagenic call [1] was “inactive; negative”. The mutagenic call [2] was “active; positive”, the mutagenic call (Test System: AMES SALMONELLA TYPHIMURIUM, Strain/Indicator: TA97, Metabolic Activation: RAT, LIVER, S-9, PCB, Method: STANDARD PLATE) was “active; positive” and the mutagenic call (Test System: AMES SALMONELLA TYPHIMURIUM, Strain/Indicator: TA97A, Metabolic Activation: RAT, LIVER, S-9, AROCLOR 1254, Method: STANDARD PLATE) was “active; positive”. For the same compound, the mutagenic call (Test System: AMES SALMONELLA TYPHIMURIUM, Strain/Indicator: TA98, Metabolic Activation: NONE, Method: PREINCUBATION) was “inactive; negative”, the mutagenic call [3] was “inactive; negative” and the mutagenic call (Test System: AMES SALMONELLA TYPHIMURIUM, Strain/Indicator: TA98, Metabolic Activation: RAT, LIVER, S-9, AROCLOR 1254, Method: PREINCUBATION) was “inactive; negative”. The mutagenic call [4] was “inactive; negative”, the mutagenic call (Test System: AMES SALMONELLA TYPHIMURIUM, Strain/Indicator: TA98, Metabolic Activation: RAT, LIVER, S-9, PCB, Method: STANDARD PLATE) was “active; positive” and the mutagenic call (Test System: AMES SALMONELLA TYPHIMURIUM, Strain/Indicator: TA100, Metabolic Activation: MOUSE, LIVER, MICROSOMES, BENZO[E]PYRENE AND TCDD, Method: STANDARD PLATE) was “inactive; negative”. The mutagenic call (Test System: AMES SALMONELLA TYPHIMURIUM, Strain/Indicator: TA100, Metabolic Activation: NONE, Method: PREINCUBATION) was “inactive; negative”, the mutagenic call [5] was “inactive; negative” and the mutagenic call (Test System: AMES SALMONELLA TYPHIMURIUM, Strain/Indicator: TA100, Metabolic Activation: RAT, LIVER, S-9, AROCLOR 1254, Method: PREINCUBATION) was “inactive; negative”. The mutagenic call (Test System: AMES SALMONELLA TYPHIMURIUM, Strain/Indicator: TA100, Metabolic Activation: RAT, LIVER, S-9, PCB, Method: STANDARD PLATE) was “inactive; negative”, the mutagenic call [6] was “active; positive” and the mutagenic call (Test System: CHINESE HAMSTER OVARY, Strain/Indicator: CHO (HGPRT)/6-THIOGUANINE, Metabolic Activation: NONE, Method: STANDARD PLATE) was “inactive; negative”. For the same compound, the mutagenic call (Test System: CHINESE HAMSTER OVARY, Strain/Indicator: CHO (HGPRT)/6-THIOGUANINE, Metabolic Activation: RAT, LIVER, S-9, AROCLOR 1254, Method: STANDARD PLATE) was “inactive; negative”, the mutagenic call (Test System: CHINESE HAMSTER OVARY, Strain/Indicator: CHO-K1-BH4 (HGPRT)/6-THIOGUANINE, Metabolic Activation: NONE, Method: SUSPENSION/PLATE) was “inactive; negative” and the mutagenic call (Test System: CHINESE HAMSTER OVARY, Strain/Indicator: CHO-K1-BH4 (HGPRT)/6-THIOGUANINE, Metabolic Activation: S-9, Method: SUSPENSION/PLATE) was “inactive; negative”. The mutagenic call (Test System: CHINESE HAMSTER OVARY, Strain/Indicator: CHO-K1-BH4 (HGPRT), Metabolic Activation: NONE, Method: SUSPENSION/PLATE) was “inactive; negative”, the mutagenic call (Test System: CHINESE HAMSTER OVARY, Strain/Indicator: CHO-K1-BH4 (HGPRT), Metabolic Activation: RAT, LIVER, S-9, AROCLOR, Method: SUSPENSION/PLATE) was “inactive; negative” and the mutagenic call (Test System: E. COLI, Strain/Indicator: WP2 UVRA, Metabolic Activation: HAMSTER, LIVER, S-9, AROCLOR 1254, Method: STANDARD PLATE) was “inactive; negative”. For the same compound, the mutagenic call (Test System: E. COLI, Strain/Indicator: WP2 UVRA, Metabolic Activation: HAMSTER, LIVER, S-9, Method: STANDARD PLATE) was “inactive; negative”, the mutagenic call (Test System: E. COLI, Strain/Indicator: WP2 UVRA, Metabolic Activation: MOUSE, LIVER, S-9, AROCLOR 1254, Method: STANDARD PLATE) was “inactive; negative” and the mutagenic call (Test System: E. COLI, Strain/Indicator: WP2 UVRA, Metabolic Activation: MOUSE, LIVER, S-9, Method: STANDARD PLATE) was “inactive; negative”. For the same compound, the mutagenic call (Test System: E. COLI, Strain/Indicator: WP2 UVRA, Metabolic Activation: NONE, Method: STANDARD PLATE) was “inactive; negative”, the mutagenic call (Test System: E. COLI, Strain/Indicator: WP2 UVRA, Metabolic Activation: RAT, LIVER, S-9, AROCLOR 1254, Method: STANDARD PLATE) was “inactive; negative” and the mutagenic call (Test System: E. COLI, Strain/Indicator: WP2 UVRA, Metabolic Activation: RAT, LIVER, S-9, Method: STANDARD PLATE) was “inactive; negative”. The mutagenic call (Test System: MOUSE LYMPHOMA, Strain/Indicator: L5178Y (TK+/TK-), Metabolic Activation: NONE, Method: SUSPENSION/PLATE) was “inactive; negative”, the mutagenic call (Test System: MOUSE LYMPHOMA, Strain/Indicator: L5178Y (TK+/TK-), Metabolic Activation: RAT, LIVER, S-9, AROCLOR 1254, Method: SUSPENSION/PLATE) was “active; positive” and the mutagenic call (Test System: MOUSE LYMPHOMA, Strain/Indicator: L5178Y (TK+/TK-), Metabolic Activation: S-9, Method: SUSPENSION/PLATE) was “active; positive”. For the same compound, the mutagenic call (Test System: UDS RAT HEPATOCYTES, Strain/Indicator: BROMODEOXYURIDINE INCORP, Metabolic Activation: NONE, Method: FLOW CYTOMETRIC ANALYSIS) was “inactive; negative”, the mutagenic call (Test System: UDS RAT HEPATOCYTES, Strain/Indicator: THY INCORP, Metabolic Activation: NONE, Method: AUTORADIOGRAPHY) was “inactive; negative” and the mutagenic call (Test System: UDS RODENT HEPATOCYTES, Strain/Indicator: THY INCORP, Metabolic Activation: NONE, Method: AUTORADIOGRAPHY) was “inactive; negative”. For the same compound, the mutagenic call (Test System: UDS, Strain/Indicator: HEPG2/THYMIDINE INCORPORATION, Metabolic Activation: NONE, Method: AUTORADIOGRAPHY) was “inactive; negative”.

With `Fc1cccc(F)n1` the mutagenic call [1] was “inactive; negative”, the mutagenic call [2] was “inactive; negative” and the mutagenic call [3] was “inactive; negative”. The mutagenic call [4] was “inactive; negative”, the mutagenic call [5] was “inactive; negative” and the mutagenic call [7] was “inactive; negative”. For the same compound, the mutagenic call (Test System: AMES SALMONELLA TYPHIMURIUM, Strain/Indicator: TA102, Metabolic Activation: NONE, Method: STANDARD PLATE) was “inactive; negative” and the mutagenic call (Test System: AMES SALMONELLA TYPHIMURIUM, Strain/Indicator: TA102, Metabolic Activation: RAT, LIVER, S-9, AROCLOR 1254, Method: STANDARD PLATE) was “inactive; negative”.

In the case of `O=C(Nc1ccccc1)c1csc([N+](=O)[O-])c1`, the mutagenic call (Test System: AMES SALMONELLA TYPHIMURIUM, Strain/Indicator: TA98(1,8-DNP6), Metabolic Activation: NONE, Method: STANDARD PLATE) is reported as “active; positive”, the mutagenic call (Test System: AMES SALMONELLA TYPHIMURIUM, Strain/Indicator: TA98(NR), Metabolic Activation: NONE, Method: STANDARD PLATE) is reported as “inactive; negative” and the mutagenic call [3] is reported as “active; positive”. The mutagenic call [5] was “active; positive”, the mutagenic call (Test System: AMES SALMONELLA TYPHIMURIUM, Strain/Indicator: YG1021, Metabolic Activation: NONE, Method: STANDARD PLATE) was “active; positive” and the mutagenic call (Test System: AMES SALMONELLA TYPHIMURIUM, Strain/Indicator: YG1024, Metabolic Activation: NONE, Method: STANDARD PLATE) was “active; positive”.

With `Cc1cc(C(O)c2ncc([N+](=O)[O-])n2C)c(O)c(C(C)(C)C)c1` (centres undefined) the mutagenic call [3] was “inactive; negative”, the mutagenic call [4] was “inactive; negative” and the mutagenic call [5] was “inactive; negative”. For the same compound, the mutagenic call [7] was “inactive; negative”, the mutagenic call (Test System: AMES SALMONELLA TYPHIMURIUM, Strain/Indicator: TA1535, Metabolic Activation: NONE, Method: STANDARD PLATE) was “inactive; negative” and the mutagenic call (Test System: AMES SALMONELLA TYPHIMURIUM, Strain/Indicator: TA1535, Metabolic Activation: RAT, LIVER, S-9, AROCLOR 1254, Method: STANDARD PLATE) was “inactive; negative”. For the same compound, the mutagenic call (Test System: AMES SALMONELLA TYPHIMURIUM, Strain/Indicator: TA1537, Metabolic Activation: NONE, Method: STANDARD PLATE) was “inactive; negative”, the mutagenic call [6] was “inactive; negative” and the mutagenic call (Test System: AMES SALMONELLA TYPHIMURIUM, Strain/Indicator: TA1538, Metabolic Activation: NONE, Method: STANDARD PLATE) was “inactive; negative”. For the same compound, the mutagenic call (Test System: AMES SALMONELLA TYPHIMURIUM, Strain/Indicator: TA1538, Metabolic Activation: RAT, LIVER, S-9, AROCLOR 1254, Method: STANDARD PLATE) was “inactive; negative”.

`CC(C)(C)NC[C@H](O)COc1ccc(O)cc1C1CCCC1` was tested, and the mutagenic call [3] was “inactive; negative” and the mutagenic call [4] was “inactive; negative”.

For `Clc1ccnc2ccccc12`, the mutagenic call (Test System: AMES SALMONELLA TYPHIMURIUM, Strain/Indicator: TA100, Metabolic Activation: RAT, LIVER, S-9, PHENOBARBITAL AND 5,6-BENZOFLAVONE, Method: PREINCUBATION) was “active; positive”.
